Assays:
Settings in all cases: 72 h
Caco-2 [1] = assay: cell viability relative to DMSO; higher = less toxic
Calu-3 [2] = assay: as above
HepG2 [3] = assay: as above
U2OS [4] = assay: as above
Vero E6 [5] = assay: as above
Caco-2 [6] = assay: relative viability EC50 (midpoint between 100% and the lowest measured viability); higher = less toxic
Calu-3 [7] = assay: as above
HepG2 [8] = assay: as above
U2OS [9] = assay: as above
Vero E6 [10] = assay: as above
Caco-2 [11] = assay: drug sensitivity score (DSS) for viability; higher = more toxic; extreme values may be limits of the assay
Calu-3 [12] = assay: as above
HepG2 [13] = assay: as above
U2OS [14] = assay: as above
Vero E6 [15] = assay: as above

| SMILES | cell viability (Caco-2 [1]; 1 nM) | cell viability (Caco-2 [1]; 10 nM) | cell viability (Caco-2 [1]; 100 nM) | cell viability (Caco-2 [1]; 1000 nM) | cell viability (Caco-2 [1]; 10000 nM) | cell viability (Calu-3 [2]; 1 nM) | cell viability (Calu-3 [2]; 10 nM) | cell viability (Calu-3 [2]; 100 nM) | cell viability (Calu-3 [2]; 1000 nM) | cell viability (Calu-3 [2]; 10000 nM) | cell viability (HepG2 [3]; 1 nM) | cell viability (HepG2 [3]; 10 nM) | cell viability (HepG2 [3]; 100 nM) | cell viability (HepG2 [3]; 1000 nM) | cell viability (HepG2 [3]; 10000 nM) | cell viability (U2OS [4]; 1 nM) | cell viability (U2OS [4]; 10 nM) | cell viability (U2OS [4]; 100 nM) | cell viability (U2OS [4]; 1000 nM) | cell viability (U2OS [4]; 10000 nM) | cell viability (Vero E6 [5]; 1 nM) | cell viability (Vero E6 [5]; 10 nM) | cell viability (Vero E6 [5]; 100 nM) | cell viability (Vero E6 [5]; 1000 nM) | cell viability (Vero E6 [5]; 10000 nM) | relative viability EC50 (Caco-2 [6]) | relative viability EC50 (Calu-3 [7]) | relative viability EC50 (HepG2 [8]) | relative viability EC50 (U2OS [9]) | relative viability EC50 (Vero E6 [10]) | drug sensitivity score (Caco-2 [11]) | drug sensitivity score (Calu-3 [12]) | drug sensitivity score (HepG2 [13]) | drug sensitivity score (U2OS [14]) | drug sensitivity score (Vero E6 [15]) |
| --- | --- | --- | --- | --- | --- | --- | --- | --- | --- | --- | --- | --- | --- | --- | --- | --- | --- | --- | --- | --- | --- | --- | --- | --- | --- | --- | --- | --- | --- | --- | --- | --- | --- | --- | --- |
| Cc1ncc(C[n+]2csc(CCO)c2C)c(N)n1 [thiamine] | 107% | 103% | 100% | 96.9% | 102% | 104% | 91.6% | 99.6% | 104% | 105% | 96% | 103% | 96.2% | 105% | 88.2% | 104% | 104% | 102% | 105% | 99.1% | 95.7% | 108% | 98.4% | 102% | 99.7% | > 10 µM | > 10 µM | > 10 µM | > 10 µM | > 10 µM | 0 | 0 | 0 | 0 | 0 |
| COc1ccc(C(=O)NCc2ccc(OCCN(C)C)cc2)cc1OC [itopride] | 99% | 96.5% | 108% | 100% | 89.5% | 102% | 103% | 97.1% | 103% | 91.2% | 97.4% | 96.2% | 87.2% | 90.3% | 107% | 102% | 101% | 99.1% | 103% | 95.1% | 99.9% | 102% | 99.8% | 101% | 96.7% | > 10 µM | > 10 µM | > 10 µM | > 10 µM | > 10 µM | 0 | 0 | 0 | 0 | 0 |
| CCOC(N)=O [urethane] | 93.5% | 97.3% | 98.4% | 95.5% | 102% | 105% | 103% | 90.5% | 107% | 112% | 95.8% | 106% | 85% | 97.4% | 105% | 101% | 102% | 97.6% | 104% | 97.9% | 98.9% | 96.7% | 98% | 100% | 104% | > 10 µM | > 10 µM | > 10 µM | > 10 µM | > 10 µM | 0 | 0 | 0 | 0 | 0 |
| Cc1cc(C)c2c(N)c(C(=O)NCc3ccc(Cl)cc3)sc2n1 | 95.7% | 91.5% | 107% | 89.5% | 108% | 101% | 92.2% | 97% | 108% | 96.3% | 102% | 105% | 101% | 91.6% | 98.5% | 98.9% | 103% | 99.7% | 102% | 105% | 101% | 91.8% | 108% | 90.4% | 105% | > 10 µM | > 10 µM | > 10 µM | > 10 µM | > 10 µM | 0 | 0 | 0 | 0 | 0 |
| Cc1ccc(/N=C/N(C)/C=N/c2ccc(C)cc2C)c(C)c1 [amitraz] | 94.1% | 99.5% | 91.8% | 104% | 88.1% | 95.1% | 104% | 98.1% | 105% | 96.1% | 96% | 81.2% | 103% | 87.4% | 92.2% | 101% | 99.2% | 94.6% | 95.5% | 87.8% | 94.8% | 103% | 95.8% | 95.6% | 104% | > 10 µM | > 10 µM | > 10 µM | > 10 µM | > 10 µM | 0 | 0 | 0 | 0 | 0 |
| Cc1cc2nc3c(=O)[nH]c(=O)nc-3n(C[C@H](O)[C@H](O)[C@H](O)CO)c2cc1C [riboflavin] | 99% | 95.3% | 92.7% | 107% | 96.8% | 102% | 104% | 86% | 107% | 92.2% | 95.9% | 85% | 93.7% | 93.4% | 93% | 97.4% | 101% | 96.2% | 102% | 94.6% | 96.6% | 91.9% | 96.3% | 94.2% | 95.4% | > 10 µM | > 10 µM | > 10 µM | > 10 µM | > 10 µM | 0 | 0 | 0 | 0 | 0 |
| CC[C@H]1OC(=O)[C@H](C)C(=O)[C@H](C)[C@@H](O[C@@H]2O[C@H](C)C[C@H](N(C)C)[C@H]2O)[C@](C)(OC)C[C@@H](C)C(=O)[C@H](C)[C@H]2N(CCCCn3cnc(-c4cccnc4)c3)C(=O)O[C@]12C [telithromycin] | 100% | 99.5% | 100% | 104% | 89% | 107% | 101% | 89% | 99.8% | 100% | 105% | 96.6% | 103% | 101% | 109% | 88% | 95.4% | 95% | 95.2% | 97% | 98.1% | 98.9% | 96.1% | 96.1% | 106% | > 10 µM | > 10 µM | > 10 µM | > 10 µM | > 10 µM | 0 | 0 | 0 | 0 | 0 |
| O=C1C(=O)N(Cc2ccc(Cl)c(Cl)c2)c2ccccc21 [apoptosis-activator-II] | 91.6% | 104% | 93.3% | 96.7% | 84.5% | 95.7% | 93% | 103% | 92.6% | 89% | 103% | 98% | 108% | 107% | 84.5% | 99.2% | 98.9% | 94% | 94.4% | 30.2% | 106% | 102% | 103% | 102% | 87.8% | > 10 µM | > 10 µM | > 10 µM | 2.5 µM | > 10 µM | 0.2 | 0 | 0.1 | 4.7 | 0 |
| Cc1cc(C(N)=O)ccc1-n1c(CCC(=O)O)ccc1-c1ccc(-n2ccnc2)cc1 [N6022] | 91.8% | 99.5% | 100% | 104% | 100% | 99.1% | 98.5% | 93.9% | 95.5% | 101% | 104% | 89.6% | 111% | 107% | 104% | 96.7% | 103% | 97.7% | 101% | 97.2% | 99.3% | 96.5% | 94.8% | 94% | 106% | > 10 µM | > 10 µM | > 10 µM | > 10 µM | > 10 µM | 0 | 0 | 0 | 0 | 0 |
| CC(=O)N[C@@H](C=O)[C@@H](O)[C@H](O)[C@H](O)CO [N-acetyl-D-glucosamine] | 93.3% | 97.6% | 113% | 102% | 107% | 103% | 111% | 101% | 93% | 95.9% | 91% | 85.7% | 94% | 94.7% | 87.3% | 102% | 99.7% | 102% | 97.3% | 102% | 100% | 110% | 104% | 106% | 87.5% | > 10 µM | > 10 µM | > 10 µM | > 10 µM | > 10 µM | 0 | 0 | 0 | 0 | 0 |
| CC(C)Oc1ccc2c(=O)c3cc(C(=O)O)ccc3oc2c1 [AH6809] | 97.6% | 100% | 93.2% | 93.6% | 85.2% | 112% | 111% | 96.9% | 103% | 104% | 96.6% | 97.1% | 91.5% | 93.6% | 94.5% | 104% | 105% | 107% | 102% | 95% | 96.5% | 102% | 95.3% | 89.8% | 98.9% | > 10 µM | > 10 µM | > 10 µM | > 10 µM | > 10 µM | 0.3 | 0 | 0 | 0 | 0 |
| N=C(NCCC[C@H](N)C(=O)O)N[N+](=O)[O-] [NG-nitro-arginine] | 92.7% | 88.8% | 106% | 84.2% | 89.4% | 93.5% | 106% | 91.7% | 93.7% | 94.6% | 96.7% | 101% | 95.2% | 101% | 95.2% | 104% | 95.6% | 101% | 93.2% | 97.9% | 104% | 101% | 103% | 101% | 92.8% | > 10 µM | > 10 µM | > 10 µM | > 10 µM | > 10 µM | 0 | 0 | 0 | 0 | 0 |
| Cc1cc2c(OCC(CNC(C)(C)C)OC(=O)c3ccccc3)cccc2[nH]1 (stereo not given) [bopindolol] | 93.7% | 102% | 95.4% | 102% | 91.7% | 101% | 102% | 108% | 103% | 92% | 94% | 100% | 101% | 96.8% | 95.8% | 92.7% | 101% | 93% | 110% | 90.4% | 101% | 91.6% | 95.9% | 98.5% | 98.1% | > 10 µM | > 10 µM | > 10 µM | > 10 µM | > 10 µM | 0 | 0 | 0 | 0 | 0 |

Reference: the supplement of paper PMC13380429
